Measured values published in US8226976B2, “Method of using cell-free protein synthesis to produce a membrane protein” (Riken, priority 2007, dated 2012).

Columns and labels:
[1] = in water; cited from earlier work
[2] = test system: cell-free protein synthesis system (S30 extract); assay: cell-free synthesis of BR by the dialysis method with the cholate concentration kept constant; type: biochemical, E. coli; details: 1% sodium cholate added to internal and external dialysis solutions; FIG. 2, Lanes 3, 4
Protocol: A protein synthesis reaction was performed as follows: an internal solution of the composition as shown in table 1 as mentioned below was supplied with 100 μM all-trans retinal at final concentration (Sigma), 9 μg of synthetic plasmid as necessary, a predetermined concentration of a detergent, and 6 mg of egg yolk phosphatidylcholine (Type XVI-E, Sigma) to prepare a reaction solution, 0.9 ml of which was poured into a dialysis membrane (Spectra/Por 7, Molecular Weight Cut Off: 15000, Spectrum). The synthesis reaction was performed at 30° C. for 6 h during dialysis which was to 10 times volume of external solution (9 mL) in a 15 mL conical tube by rotary shaking with a rotary shaker (RT-50, TAITEC). […]
After termination of the synthesis reaction, the reaction internal solution was centrifuged at 15000 rpm for 10 min. […] Scatter correction was performed by subjecting the determined scores from 680 nm to 750 nm to linear regression to subtract from the measured spectrums. The amount of an active BR was calculated from the score of the spectrum of 560 nm as subjected to the scatter correction using the molar absorption coefficient: 42000 and the molecular weight: 31.4 k. […]

SMILES	critical micelle concentration (cmc) [1]	synthesis of BR (effect of inhibiting protein synthesis) [2]
C[C@H](CCC(=O)NCCC[N+](C)(C)CCCS(=O)(=O)[O-])[C@H]1CC[C@H]2[C@@H]3[C@H](O)C[C@@H]4C[C@H](O)CC[C@]4(C)[C@H]3C[C@H](O)[C@]12C [CHAPS, 3-[(3-cholamidepropyl)dimethylammonio]-1-propanesulfonate]	0.49 % (w/v)	–
C[C@H](CCC(=O)[O-])[C@H]1CC[C@H]2[C@@H]3[C@H](O)C[C@@H]4C[C@H](O)CC[C@]4(C)[C@H]3C[C@H](O)[C@]12C.[Na+] [sodium cholate]	0.41 % (w/v)	synthesis of BR was not found
C[C@@H]1CC[C@@]2(OC1)O[C@H]1[C@@H](O)[C@H]3[C@@H]4CC[C@H]5C[C@@H](O[C@@H]6O[C@H](CO)[C@H](O[C@@H]7O[C@H](CO)[C@@H](O)[C@H](O[C@@H]8OC[C@@H](O)[C@H](O)[C@H]8O)[C@H]7O[C@@H]7O[C@H](CO)[C@H](O)[C@H](O[C@@H]8O[C@H](CO)[C@@H](O)[C@H](O)[C@H]8O)[C@H]7O)[C@H](O)[C@H]6O)[C@H](O)C[C@]5(C)[C@H]4CC[C@]3(C)[C@H]1[C@@H]2C [digitonin]	0.06 % (w/v)	–
